From patent US10221177B2 (HYDRA BIOSCIENCES, INC., priority 2014, dated 2019) come the findings set out here.

pIC50: −log10 of the molar value.

The subject of experiment [1] is formalin-induced pain behaviors in the rat. The experiment is described as follows: Formalin-induced pain test (formalin model), duration of pain behaviors. It is filed as in vivo. The method, then:
Exemplary compounds of the invention were tested in the formalin-induced pain test reported by Dubuisson et al., Pain 1977 December; 4(2):161-74 (incorporated herein by reference in its entirety). Briefly, dilute formalin (50 μL of 3% formalin) was injected into the plantar surface of the hind paw of a rat. […] The individual responsible for counting the pain behaviors in a particular study was blinded to the treatment groups.
The initial phase (Phase I: 0-5 min) is thought to have a significant component that is dependent upon direct activation of afferent fibers by formalin and functional TRPA1 (McNamara et al., 2007).
Investigators studied oral administration of compounds of the invention at the doses presented in Table 3 on pain behaviors in the formalin model in the rat. Compounds were formulated as solutions in water with various solvents and excipients including dimethyl sulfoxide (DMSO), polyethylene glycol (15)-hydroxystearate (Solutol®, Sigma-Aldrich), caprylocaproyl macrogol-8 glyceride (Labrasol®, Sigma-Aldrich), polysorbate-80 (Tween®-80, Sigma-Aldrich), and polyoxyl 35 castor oil (Cremophor® EL, BASF Corp.); or suspensions in methylcellulose as indicated in Table 3. Animals were dosed orally with the vehicle, or compounds of the invention one hour prior to intraplantar formalin. […] A decrease over Vehicle indicates a positive result. P values, when indicated, indicate significance compared Vehicle.

The next experiment has as its target human TRPA1 (Homo sapiens (Human), UniProt O75762). Nature of the experiment: In vitro inhibition of human TRPA1, whole cell patch configuration. It is filed as cell-based. The conditions noted are these: current activation 10 μM AITC, tested concentrations 320 pM to 3.2 μM, read-out: hTRPA1 IC50. In a few lines:
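Whole-cell patch clamp, bath 150 mM NaCl, 10 mM HEPES, 1 mM EGTA, 3 mM MgCl2, pH 7.4 (sometimes 2 mM CaCl2, 1 mM MgCl2). Currents recorded continuously at −60 mV or by 400 ms ramps from −40 mV holding every 4 s; inward/outward currents taken at −80/80 mV, with controlled-temperature focal perfusion.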

Where [2] appears, read: 1 mpk PO one hour prior to formalin, solution in 4% DMSO, 10% Solutol, 86% water.
Where [3] appears, read: 3 mpk PO one hour prior to formalin, solution in 4% DMSO, 10% Solutol, 86% water.
Where [4] appears, read: 10 mpk PO one hour prior to formalin, solution in 4% DMSO, 10% Solutol, 86% water.
Where [5] appears, read: 30 mg/kg PO one hour prior to formalin, solution in 8% DMSO and 92% Labrasol.
Setting [6] is: 1 mg/kg PO one hour prior to formalin, solution in 4% DMSO, 5% Tween-80, 20% Cremophor EL, 71% water.
Where [7] appears, read: 3 mg/kg PO one hour prior to formalin, solution in 4% DMSO, 5% Tween-80, 20% Cremophor EL, 71% water.
[8] abbreviates: 10 mg/kg PO one hour prior to formalin, solution in 4% DMSO, 5% Tween-80, 20% Cremophor EL, 71% water.

Sequence of human TRPA1 (O75762 whole entry, the tested form may be a part): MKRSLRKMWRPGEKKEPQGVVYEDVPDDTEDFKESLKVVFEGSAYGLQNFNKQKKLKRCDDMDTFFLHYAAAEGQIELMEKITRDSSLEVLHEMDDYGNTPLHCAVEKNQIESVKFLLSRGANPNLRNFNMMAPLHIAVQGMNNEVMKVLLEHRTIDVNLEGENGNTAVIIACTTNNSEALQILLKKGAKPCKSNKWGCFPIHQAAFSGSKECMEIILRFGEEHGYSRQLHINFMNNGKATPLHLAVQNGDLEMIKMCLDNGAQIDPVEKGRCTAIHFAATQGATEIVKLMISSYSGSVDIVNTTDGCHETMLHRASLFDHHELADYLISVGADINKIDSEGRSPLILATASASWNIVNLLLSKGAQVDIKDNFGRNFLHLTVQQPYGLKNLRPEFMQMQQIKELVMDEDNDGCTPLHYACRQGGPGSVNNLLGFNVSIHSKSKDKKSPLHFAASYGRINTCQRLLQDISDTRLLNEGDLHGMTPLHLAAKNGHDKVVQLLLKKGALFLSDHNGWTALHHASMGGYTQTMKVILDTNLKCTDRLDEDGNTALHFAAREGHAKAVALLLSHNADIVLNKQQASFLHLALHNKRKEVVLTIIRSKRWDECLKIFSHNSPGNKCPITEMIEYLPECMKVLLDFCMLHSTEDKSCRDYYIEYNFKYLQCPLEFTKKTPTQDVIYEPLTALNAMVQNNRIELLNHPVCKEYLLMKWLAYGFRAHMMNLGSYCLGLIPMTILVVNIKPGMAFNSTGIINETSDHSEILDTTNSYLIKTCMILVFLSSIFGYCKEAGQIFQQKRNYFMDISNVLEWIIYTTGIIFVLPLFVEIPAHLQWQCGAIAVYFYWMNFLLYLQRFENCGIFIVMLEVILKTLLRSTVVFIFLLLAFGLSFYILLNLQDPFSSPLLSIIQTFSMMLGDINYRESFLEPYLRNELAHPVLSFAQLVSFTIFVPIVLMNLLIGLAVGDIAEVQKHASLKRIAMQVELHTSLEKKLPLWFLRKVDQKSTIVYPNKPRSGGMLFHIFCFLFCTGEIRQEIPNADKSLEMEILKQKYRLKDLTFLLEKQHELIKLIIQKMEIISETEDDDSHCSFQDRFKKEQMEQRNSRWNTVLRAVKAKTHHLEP

Turning to `Cc1cc(Cn2c(=O)c3c(ncn3[C@@H](C)C(=O)Nc3cccc(-c4ccc(C(F)(F)F)nc4)n3)n(C)c2=O)no1` [Compound 7, (S)-2-(3-methyl-1-((5-methylisoxazol-3-yl)methyl)-2,6-dioxo-2,3-dihydro-1H-purin-7(6H)-yl)-N-(6′-(trifluoromethyl)-[2,3′-bipyridin]-6-yl)propanamide], the “Duration (0-2 Minutes) Average” value in experiment [1] (setting [2]) came to 82.38 s; in experiment [1] (setting [3]), 78.25 s; in experiment [1] (setting [4]), 67.00 s. For the same molecule, the “Duration (0-5 Minutes) Average” value worked out at 200.38 s in experiment [1] (setting [2]), 173.75 s in experiment [1] (setting [3]) and 170.50 s in experiment [1] (setting [4]). Besides, the pIC50 – broadly, the IC50 on a negative log10 scale, so that one unit is a factor of ten – on human TRPA1 was 8.30.

For the molecule `Cc1cc(Cn2c(=O)c3c(ncn3[C@@H](C)C(=O)Nc3cccc(-c4cnc(C(F)(F)F)nc4)n3)n(C)c2=O)no1` [Compound 15, (S)-2-(3-methyl-1-((5-methylisoxazol-3-yl)methyl)-2,6-dioxo-2,3-dihydro-1H-purin-7(6H)-yl)-N-(6-(2-(trifluoromethyl)pyrimidin-5-yl)pyridin-2-yl)propanamide], in experiment [1] (setting [5]), the “Duration (0-2 Minutes) Average” value stood at 76.00 s and the “Duration (0-5 Minutes) Average” value was 190.20 s. Take `CCC(=O)Cn1c(=O)c2c(ncn2[C@@H](C)C(=O)Nc2cccc(-c3cnc(C)c(C(F)(F)F)c3)n2)n(C)c1=O` [Compound 135, (S)-2-(3-methyl-2,6-dioxo-1-(2-oxobutyl)-2,3-dihydro-1H-purin-7(6H)-yl)-N-(6′-methyl-5′-(trifluoromethyl)-[2,3′-bipyridin]-6-yl)propanamide]: the results for the “Duration (0-2 Minutes) Average” value in experiment [1] (setting [6]), in experiment [1] (setting [7]) and in experiment [1] (setting [8]) were 91.1 s, 80.3 s and 74.3 s, respectively. For the same molecule, the “Duration (0-5 Minutes) Average” value in experiment [1] (setting [6]) was 153.3 s; in experiment [1] (setting [7]) it was 120.3 s; in experiment [1] (setting [8]), 139.0 s. For the same molecule, the pIC50 on human TRPA1 was 8.40.

Consider `C[C@@H](C(=O)Nc1cncc(-c2cnc(N3CC4CC4C3)nc2)n1)n1cnc2c1c(=O)n(CC#N)c(=O)n2C` (some centres unmarked) [Compound 144], for which, in experiment [1] (setting [8]), the “Duration (0-2 Minutes) Average” value is 64.6 s and the “Duration (0-5 Minutes) Average” value was 181.3 s. Also, the pIC50 at human TRPA1 was 8.22. As to `COCC(=O)Cn1c(=O)c2c(ncn2[C@@H](C)C(=O)Nc2cccc(-c3ccc(N4CC5C(C4)C5(F)F)nc3)n2)n(C)c1=O` (stereo partly drawn) [Compound 258, (2S)—N-(6′-(6,6-difluoro-3-azabicyclo[3.1.0]hexan-3-yl)-[2,3′-bipyridin]-6-yl)-2-(1-(3-methoxy-2-oxopropyl)-3-methyl-2,6-dioxo-2,3-dihydro-1H-purin-7(6H)-yl)propanamide], the negative logarithm of the IC50 (pIC50) at human TRPA1 is 8.15.

For the molecule `Cc1cc(Cn2c(=O)c3c(ncn3CC(=O)Nc3csc(-c4cnc(C(F)(F)F)nc4)n3)n(C)c2=O)no1` [Compound 259, 2-(3-methyl-1-((5-methylisoxazol-3-yl)methyl)-2,6-dioxo-2,3-dihydro-1H-purin-7(6H)-yl)-N-(2-(2-(trifluoromethyl)pyrimidin-5-yl)thiazol-4-yl)acetamide], the negative logarithm of the IC50 (pIC50) on human TRPA1 was 7.77. Still for that read-out and setting: for `Cc1noc(Cn2c(=O)c3c(ncn3CC(=O)Nc3csc(-c4cnc(C(F)(F)F)nc4)n3)n(C)c2=O)n1` [Compound 260, 2-(3-methyl-1-((3-methyl-1,2,4-oxadiazol-5-yl)methyl)-2,6-dioxo-2,3-dihydro-1H-purin-7(6H)-yl)-N-(2-(2-(trifluoromethyl)pyrimidin-5-yl)thiazol-4-yl)acetamide] the value was 7.77; for `CC#CCn1c(=O)c2c(ncn2[C@@H](C)C(=O)Nc2cncc(-c3cnc(N4CC5CC5C4)nc3)n2)n(C)c1=O` (some centres unmarked) [Compound 261], 8.30; for `CC#CCn1c(=O)c2c(ncn2[C@@H](C)C(=O)Nc2csc(-c3ccc(N4CC5C(C4)C5(F)F)nc3)n2)n(C)c1=O` (stereo partly drawn) [Compound 262, (2S)-2-(1-(but-2-yn-1-yl)-3-methyl-2,6-dioxo-2,3-dihydro-1H-purin-7(6H)-yl)-N-(2-(6-(6,6-difluoro-3-azabicyclo[3.1.0]hexan-3-yl)pyridin-3-yl)thiazol-4-yl)propanamide], 9.00.

`CC#CCn1c(=O)c2c(ncn2[C@@H](C)C(=O)Nc2csc(-c3ccc(N4CC5CC5C4)nc3)n2)n(C)c1=O` (stereo partly drawn) [Compound 263, (2S)—N-(2-(6-(3-azabicyclo[3.1.0]hexan-3-yl)pyridin-3-yl)thiazol-4-yl)-2-(1-(but-2-yn-1-yl)-3-methyl-2,6-dioxo-2,3-dihydro-1H-purin-7(6H)-yl)propanamide]: the negative logarithm of the IC50 (pIC50) on human TRPA1 was 8.40. As for `COCC(=O)Cn1c(=O)c2c(ncn2[C@@H](C)C(=O)Nc2csc(-c3cnc(N4CC5CC5C4)cn3)n2)n(C)c1=O` (stereo partly drawn) [Compound 264, (2S)—N-(2-(5-(3-azabicyclo[3.1.0]hexan-3-yl)pyrazin-2-yl)thiazol-4-yl)-2-(1-(3-methoxy-2-oxopropyl)-3-methyl-2,6-dioxo-2,3-dihydro-1H-purin-7(6H)-yl)propanamide], the pIC50 at human TRPA1 was 7.51. As to `COCC(=O)Cn1c(=O)c2c(ncn2[C@@H](C)C(=O)Nc2csc(-c3cnc(N4CC5C(C4)C5(F)F)nc3)n2)n(C)c1=O` (stereo partly drawn) [Compound 265, (2S)—N-(2-(2-(6,6-difluoro-3-azabicyclo[3.1.0]hexan-3-yl)pyrimidin-5-yl)thiazol-4-yl)-2-(1-(3-methoxy-2-oxopropyl)-3-methyl-2,6-dioxo-2,3-dihydro-1H-purin-7(6H)-yl)propanamide], the pIC50 on human TRPA1 is 8.52. In the case of `COCC(=O)Cn1c(=O)c2c(ncn2[C@@H](C)C(=O)Nc2cccc(-c3cnc(N4CC5CC5C4)cn3)n2)n(C)c1=O` (stereo partly drawn) [Compound 266, (2S)—N-(6-(5-(3-azabicyclo[3.1.0]hexan-3-yl)pyrazin-2-yl)pyridin-2-yl)-2-(1-(3-methoxy-2-oxopropyl)-3-methyl-2,6-dioxo-2,3-dihydro-1H-purin-7(6H)-yl)propanamide], the pIC50 on human TRPA1 was 8.15.

Regarding `CC#CCn1c(=O)c2c(ncn2[C@@H](C)C(=O)Nc2csc(-c3cnc(N4CC5C(C4)C5(F)F)nc3)n2)n(C)c1=O` (stereo partly drawn) [Compound 267, (2S)-2-(1-(but-2-ynyl)-3-methyl-2,6-dioxo-2,3-dihydro-1H-purin-7(6H)-yl)-N-(2-(2-(6,6-difluoro-3-azabicyclo[3.1.0]hexan-3-yl)pyrimidin-5-yl)thiazol-4-yl)propanamide], on human TRPA1, the pIC50 is 8.70. For the molecule `CC#CCn1c(=O)c2c(ncn2[C@@H](C)C(=O)Nc2csc(-c3cnc(N4CCC[C@H]4C(F)(F)F)nc3)n2)n(C)c1=O` [Compound 268, (S)-2-(1-(but-2-ynyl)-3-methyl-2,6-dioxo-2,3-dihydro-1H-purin-7(6H)-yl)-N-(2-(2-((S)-2-(trifluoromethyl)pyrrolidin-1-yl)pyrimidin-5-yl)thiazol-4-yl)propanamide], at human TRPA1, the negative-log IC50 (pIC50) is 9.00. As for `COCC(=O)Cn1c(=O)c2c(ncn2[C@@H](C)C(=O)Nc2csc(-c3ccc(N4CC5C(C4)C5(F)F)nc3)n2)n(C)c1=O` (stereo partly drawn) [Compound 269, (2S)—N-(2-(6-(6,6-difluoro-3-azabicyclo[3.1.0]hexan-3-yl)pyridin-3-yl)thiazol-4-yl)-2-(1-(3-methoxy-2-oxopropyl)-3-methyl-2,6-dioxo-2,3-dihydro-1H-purin-7(6H)-yl)propanamide], the pIC50 at human TRPA1 is 8.40.

Consider `CCC(=O)Cn1c(=O)c2c(ncn2[C@@H](C)C(=O)Nc2csc(-c3cnc(N4CC5CC5C4)cn3)n2)n(C)c1=O` (stereo partly drawn) [Compound 270, (2S)—N-(2-(5-(3-azabicyclo[3.1.0]hexan-3-yl)pyrazin-2-yl)thiazol-4-yl)-2-(3-methyl-2,6-dioxo-1-(2-oxobutyl)-2,3-dihydro-1H-purin-7(6H)-yl)propanamide], for which the negative-log IC50 (pIC50) on human TRPA1 is 8.52. For the molecule `COCC(=O)Cn1c(=O)c2c(ncn2[C@@H](C)C(=O)Nc2cncc(-c3ccc(N4CC5CC5C4)nc3)n2)n(C)c1=O` (stereo partly drawn) [Compound 271, (2S)—N-(6-(6-(3-azabicyclo[3.1.0]hexan-3-yl)pyridin-3-yl)pyrazin-2-yl)-2-(1-(3-methoxy-2-oxopropyl)-3-methyl-2,6-dioxo-2,3-dihydro-1H-purin-7(6H)-yl)propanamide], the pIC50 at human TRPA1 was 8.30. Take `COCC(=O)Cn1c(=O)c2c(ncn2[C@@H](C)C(=O)Nc2cccc(-c3cnc(N4CC5C(C4)C5(F)F)cn3)n2)n(C)c1=O` (some centres unmarked) [Compound 272]: the pIC50 at human TRPA1 is 8.15. Same read-out and setting: for “(S)-2-(3-methyl-1-((3-methyl-1,2,4-oxadiazol-5-yl)methyl)-2,6-dioxo-2,3-dihydro-1H-purin-7(6H)-yl)-N-(5′-methyl-6′-(trifluoromethyl)-[2,3′-bipyridin]-6-yl)propanamide [Compound 134]” the value was 8.52.
